Measured values from the NIST ThermoML archive (doi:10.1021/je700270d).
± gives the expanded uncertainty stated by the source.

Tests used:
[1] = activity coefficient (dimensionless); of the first substance listed, at infinite dilution; xn = mol fraction of the nth substance listed; conditions: Liquid, x1 = 0
[2] = Liquid, Closed cell (Static) method

| Structure (SMILES) | activity coefficient ([1]; 250.06 K, Chromatography) | activity coefficient ([1]; 270.12 K, Chromatography) | activity coefficient ([1]; 289.97 K, Chromatography) | activity coefficient ([1]; 309.98 K, Chromatography) | activity coefficient ([1]; 329.97 K, Chromatography) | also measured |
| --- | --- | --- | --- | --- | --- | --- |
| C=CC=C [1,3-butadiene] + C1CCOCC1 | 0.95 ± 0.03 | 0.97 ± 0.03 | 1.01 ± 0.03 | 1.05 ± 0.03 | 1.09 ± 0.03 | – |
| C=C(C)C [2-methylpropene] + C1CCOCC1 | 1.39 ± 0.05 | 1.39 ± 0.05 | 1.38 ± 0.05 | 1.38 ± 0.05 | 1.37 ± 0.05 | – |
| CCCCCC [hexane] + C1CCOCC1 | – | – | – | 1.67 ± 0.07 | – | activity coefficient ([1]; 290 K, Chromatography): 1.76 ± 0.07; activity coefficient ([1]; 299.89 K, Chromatography): 1.71 ± 0.07; activity coefficient ([1]; 319.99 K, Chromatography): 1.65 ± 0.07; activity coefficient ([1]; 330.02 K, Chromatography): 1.61 ± 0.06 |
| C1CCOCC1 [tetrahydropyran] | – | – | – | – | – | vapor or sublimation pressure ([2]; 257.96 K): 0.98 ± 0.01 kPa; vapor or sublimation pressure ([2]; 260.07 K): 1.13 ± 0.01 kPa; vapor or sublimation pressure ([2]; 270.28 K): 2.16 ± 0.02 kPa; vapor or sublimation pressure ([2]; 279.82 K): 3.7 ± 0.02 kPa; vapor or sublimation pressure ([2]; 289.94 K): 6.28 ± 0.02 kPa; vapor or sublimation pressure ([2]; 290 K): 6.3 ± 0.02 kPa; vapor or sublimation pressure ([2]; 300.01 K): 10.23 ± 0.04 kPa; vapor or sublimation pressure ([2]; 332.98 K): 40 ± 0.1 kPa; vapor or sublimation pressure ([2]; 341.09 K): 53.33 ± 0.12 kPa; vapor or sublimation pressure ([2]; 347.72 K): 66.66 ± 0.15 kPa; vapor or sublimation pressure ([2]; 353.38 K): 79.99 ± 0.18 kPa; vapor or sublimation pressure ([2]; 358.37 K): 93.33 ± 0.21 kPa; vapor or sublimation pressure ([2]; 360.22 K): 98.66 ± 0.22 kPa |
| C=CCC [1-butene] + C1CCOCC1 | – | – | – | – | – | activity coefficient ([1]; 250.06 K, Gas Stripping Method): 1.39 ± 0.01; activity coefficient ([1]; 270.12 K, Gas Stripping Method): 1.39 ± 0.01; activity coefficient ([1]; 289.97 K, Gas Stripping Method): 1.38 ± 0.01; activity coefficient ([1]; 309.98 K, Gas Stripping Method): 1.38 ± 0.01; activity coefficient ([1]; 329.97 K, Gas Stripping Method): 1.38 ± 0.01 |
| CCCC [butane] + C1CCOCC1 | 2.04 ± 0.09 | 1.94 ± 0.09 | 1.85 ± 0.08 | 1.78 ± 0.08 | 1.72 ± 0.07 | – |
| C/C=C\C [(Z)-2-butene] + C1CCOCC1 | – | – | – | 1.31 ± 0.05 | – | activity coefficient ([1]; 250 K, Chromatography): 1.36 ± 0.05; activity coefficient ([1]; 270.07 K, Chromatography): 1.33 ± 0.05; activity coefficient ([1]; 289.98 K, Chromatography): 1.32 ± 0.05; activity coefficient ([1]; 330 K, Chromatography): 1.32 ± 0.05 |
| C/C=C/C [(E)-2-butene] + C1CCOCC1 | 1.43 ± 0.05 | 1.41 ± 0.05 | 1.4 ± 0.05 | 1.4 ± 0.05 | 1.4 ± 0.05 | – |

The next lines start with results.

| activity coefficient ([1]; 250.06 K, Chromatography) | activity coefficient ([1]; 270.12 K, Chromatography) | activity coefficient ([1]; 289.97 K, Chromatography) | activity coefficient ([1]; 309.98 K, Chromatography) | activity coefficient ([1]; 329.97 K, Chromatography) | Structure (SMILES) | also measured |
| --- | --- | --- | --- | --- | --- | --- |
| – | – | – | 1.26 ± 0.04 | – | COC [dimethyl ether] + C1CCOCC1 | activity coefficient ([1]; 250 K, Chromatography): 1.29 ± 0.04; activity coefficient ([1]; 270.07 K, Chromatography): 1.26 ± 0.04; activity coefficient ([1]; 289.98 K, Chromatography): 1.26 ± 0.04; activity coefficient ([1]; 330 K, Chromatography): 1.26 ± 0.04 |
| 2.14 ± 0.1 | 2.04 ± 0.09 | 1.94 ± 0.09 | 1.88 ± 0.08 | 1.82 ± 0.08 | CC(C)C [2-methylpropane] + C1CCOCC1 | – |
| 1.57 ± 0.06 | 1.64 ± 0.07 | 1.67 ± 0.07 | 1.69 ± 0.07 | 1.66 ± 0.07 | CC(F)F [1,1-difluoroethane] + C1CCOCC1 | – |
| – | – | – | 0.94 ± 0.03 | – | CCCl [chloroethane] + C1CCOCC1 | activity coefficient ([1]; 250 K, Chromatography): 0.9 ± 0.03; activity coefficient ([1]; 270.07 K, Chromatography): 0.89 ± 0.03; activity coefficient ([1]; 289.98 K, Chromatography): 0.89 ± 0.03; activity coefficient ([1]; 330 K, Chromatography): 0.98 ± 0.03 |
| 2.08 ± 0.09 | 1.98 ± 0.09 | 1.9 ± 0.08 | 1.84 ± 0.08 | 1.79 ± 0.08 | CCC [propane] + C1CCOCC1 | – |
| 1.42 ± 0.05 | 1.42 ± 0.05 | 1.43 ± 0.05 | 1.44 ± 0.05 | 1.44 ± 0.05 | C=CC [propene] + C1CCOCC1 | – |
